Data reported in patent US10597367B2, “Metabotropic glutamate receptor negative allosteric modulators (NAMs) and uses thereof” (Sanford Burnham Prebys Medical Discovery Institute, priority 2014, dated 2020).
Read-outs that look alike come from different tables or passages of the source.

Legend:
mGlu2 receptor = mGlu2 receptor (Rattus norvegicus (Rat), UniProt P31421); test: mGlu2 in vitro GIRK thallium flux assay; format: cell-based; details: NAM, HEK-293 GIRK cells
Protocol: All cell culture reagents were purchased from Invitrogen Corp. (Carlsbad, Calif.) unless otherwise noted. Compound activity at the group II (mGlu2 and mGlu3) mGlus was assessed using thallium flux through GIRK channels. Briefly, cells were plated into 384-well, black-walled, clear-bottomed poly-D-lysine-coated plates at a density of 15,000 cells/20 μL/well in DMEM containing 10% dialyzed FBS, 20 mM HEPES, and 100 units/mL penicillin/streptomycin (assay media). Plated cells were incubated overnight at 37° C. in the presence of 5% CO2. […] Cells were incubated for 1 h at room temperature, and the dye exchanged to assay buffer using an ELX405, leaving 20 μL/well. Test compounds were diluted to 2 times their final desired concentration in assay buffer (0.3% DMSO final concentration). […] Cell plates and compound plates were loaded onto a kinetic imaging plate reader (FDSS 6000 or 7000; Hamamatsu Corporation, Bridgewater, N.J.). Appropriate baseline readings were taken (10 images at 1 Hz; excitation, 470±20 nm; emission, 540±30 nm) and test compounds were added in a 20 μL volume and incubated for either 2.5 min or 60 min as indicated before the addition of 10 μL of thallium buffer with or without agonist. After the addition of agonist, data were collected for approximately an additional 2.5 min. Data were analyzed using Excel (Microsoft Corp, Redmond, Wash.). The slope of the fluorescence increase beginning 5 s after thallium/agonist addition and ending 15 s after thallium/agonist addition was calculated, corrected to vehicle and maximal agonist control slope values, and plotted in using either XLfit (ID Business Solutions Ltd) or Prism software (GraphPad Software, San Diego, Calif.) to generate concentration-response curves. Potencies were calculated from fits using a four-point parameter logistic equation. For concentration-response curve experiments, compounds were serially diluted 1:3 into 10 point concentration response curves and were transferred to daughter plates using an Echo acoustic plate reformatter (Labcyte, Sunnyvale, Calif.). Test compounds were applied and followed by EC80 concentrations of glutamate.

mGlu3 receptor = mGlu3 receptor (Rattus norvegicus (Rat), UniProt P31422); test: mGlu3 in vitro GIRK thallium flux assay; format: cell-based; details: NAM; test compound incubated 2.5 min before EC80 glutamate; HEK-293 GIRK cells
Sequence of mGlu3 receptor (P31422 23-879): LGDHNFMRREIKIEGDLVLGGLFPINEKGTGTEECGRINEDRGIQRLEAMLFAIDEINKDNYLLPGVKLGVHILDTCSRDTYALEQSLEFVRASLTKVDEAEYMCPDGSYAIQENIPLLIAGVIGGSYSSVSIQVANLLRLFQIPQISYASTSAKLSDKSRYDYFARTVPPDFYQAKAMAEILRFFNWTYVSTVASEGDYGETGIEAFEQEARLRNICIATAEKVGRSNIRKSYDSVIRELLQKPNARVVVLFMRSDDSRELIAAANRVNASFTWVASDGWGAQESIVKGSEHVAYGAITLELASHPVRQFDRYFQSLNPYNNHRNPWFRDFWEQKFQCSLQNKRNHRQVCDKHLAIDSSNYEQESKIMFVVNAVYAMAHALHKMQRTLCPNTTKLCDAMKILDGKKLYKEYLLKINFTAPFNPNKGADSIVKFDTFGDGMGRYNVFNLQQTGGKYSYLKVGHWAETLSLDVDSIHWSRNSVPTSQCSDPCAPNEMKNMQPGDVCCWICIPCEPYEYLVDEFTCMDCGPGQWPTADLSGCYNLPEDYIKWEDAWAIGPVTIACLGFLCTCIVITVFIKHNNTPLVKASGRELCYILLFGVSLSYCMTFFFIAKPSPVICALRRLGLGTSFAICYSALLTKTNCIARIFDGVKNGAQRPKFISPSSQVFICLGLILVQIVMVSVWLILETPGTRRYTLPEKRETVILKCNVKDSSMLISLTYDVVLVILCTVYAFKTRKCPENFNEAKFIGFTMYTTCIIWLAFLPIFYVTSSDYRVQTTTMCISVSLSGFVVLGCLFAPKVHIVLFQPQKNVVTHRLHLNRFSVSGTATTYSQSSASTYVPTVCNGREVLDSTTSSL
Protocol: All cell culture reagents were purchased from Invitrogen Corp. (Carlsbad, Calif.) unless otherwise noted. Compound activity at the group II (mGlu2 and mGlu3) mGlus was assessed using thallium flux through GIRK channels. Briefly, cells were plated into 384-well, black-walled, clear-bottomed poly-D-lysine-coated plates at a density of 15,000 cells/20 μL/well in DMEM containing 10% dialyzed FBS, 20 mM HEPES, and 100 units/mL penicillin/streptomycin (assay media). Plated cells were incubated overnight at 37° C. in the presence of 5% CO2. […] Cells were incubated for 1 h at room temperature, and the dye exchanged to assay buffer using an ELX405, leaving 20 μL/well. Test compounds were diluted to 2 times their final desired concentration in assay buffer (0.3% DMSO final concentration). […] Cell plates and compound plates were loaded onto a kinetic imaging plate reader (FDSS 6000 or 7000; Hamamatsu Corporation, Bridgewater, N.J.). Appropriate baseline readings were taken (10 images at 1 Hz; excitation, 470±20 nm; emission, 540±30 nm) and test compounds were added in a 20 μL volume and incubated for either 2.5 min or 60 min as indicated before the addition of 10 μL of thallium buffer with or without agonist. […] Data were analyzed using Excel (Microsoft Corp, Redmond, Wash.). […] Potencies were calculated from fits using a four-point parameter logistic equation. […]

Male Wistar rats = test: Forced Swim Test (FST); format: in vivo; details: rat, FIG. 1
Protocol: Male Wistar rats (Charles River, Hollister, Calif.), weighing 175-225 g (Charles River, Portage, Ind.) used for the forced swim test study were housed in pairs with food and water available ad libitum, except during testing, in a temperature and humidity controlled vivarium (21° C.). Rats were maintained on a 12-hour reverse light-dark cycle with lights on at 6 pm. All experimental procedures occurred during the dark cycle, were approved by the Institutional Animal Care and Use Committee of the Scripps Research Institute, and were in accordance with the Association for the Assessment and Accreditation of Laboratory Animal Care (AAALAC) guidelines. […]
After the habituation swim and 24 hours prior to the test swim, rats were administered one of three doses of a mGlu2/3 NAM, with doses and pretreatment time based on maximal brain penetration as determined by PK studies for each compound. Blood and brain tissue were collected immediately after the FST and the PK properties of each compound were analyzed together with FST behavior. […] Twenty-four hours after their first exposure, the animals were again placed in the swim apparatus for 5 min, and behaviors were monitored from above by video camera for subsequent analysis. The rater of the behavioral patterns was blind with respect to the experimental conditions being scored. […]

SOD1G93A mice = details: continuous treatment 1 or 5 mg/kg/day; cited from earlier work
[1] = system: wild-type and mGlu2 knockout mice; details: acute 0.5, 1 or 5 mg/kg, i.p.; not in mGlu3 knockout mice; cited from earlier work
R6/2 mice = details: daily subcutaneous 20 mg/kg (MTD) beginning at 4 weeks; cited from earlier work
reserpine-treated rat = details: cited from earlier work
[2] = system: cultured spinal cord astrocytes; details: astrocytes from wild-type and mGlu2 knockout mice, not mGlu3 knockout; cited from earlier work

Sequence of mGlu2 receptor (P31421 19-872): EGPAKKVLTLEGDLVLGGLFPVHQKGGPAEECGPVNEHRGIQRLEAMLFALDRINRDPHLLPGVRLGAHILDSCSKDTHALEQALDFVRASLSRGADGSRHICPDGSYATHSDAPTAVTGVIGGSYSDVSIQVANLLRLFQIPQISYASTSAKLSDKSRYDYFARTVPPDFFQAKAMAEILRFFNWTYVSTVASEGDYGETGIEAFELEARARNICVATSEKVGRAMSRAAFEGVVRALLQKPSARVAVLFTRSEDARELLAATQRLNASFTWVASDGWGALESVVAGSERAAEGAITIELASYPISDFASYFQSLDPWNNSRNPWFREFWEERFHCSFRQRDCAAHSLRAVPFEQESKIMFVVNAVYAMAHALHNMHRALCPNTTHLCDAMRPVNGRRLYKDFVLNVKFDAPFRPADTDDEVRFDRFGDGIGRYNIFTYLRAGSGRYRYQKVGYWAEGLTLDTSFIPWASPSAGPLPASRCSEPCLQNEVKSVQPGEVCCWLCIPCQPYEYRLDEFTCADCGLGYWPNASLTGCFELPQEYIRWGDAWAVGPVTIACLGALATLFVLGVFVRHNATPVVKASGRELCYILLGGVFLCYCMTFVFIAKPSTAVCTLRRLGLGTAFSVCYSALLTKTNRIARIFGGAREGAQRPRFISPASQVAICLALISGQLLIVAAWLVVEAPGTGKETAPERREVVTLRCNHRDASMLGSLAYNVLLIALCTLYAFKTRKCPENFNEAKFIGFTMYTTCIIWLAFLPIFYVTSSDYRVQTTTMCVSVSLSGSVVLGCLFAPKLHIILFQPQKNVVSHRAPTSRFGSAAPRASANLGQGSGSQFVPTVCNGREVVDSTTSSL

Cc1cc2c(cc1C(F)(F)F)NC(=O)CC(c1cccc(Oc3ccccc3)c1)N2 (stereo not shown) [Example 177, 7-Methyl-4-(3-phenoxyphenyl)-8-(trifluoromethyl)-4,5-dihydro-1H-benzo[b][1,4]diazepin-2(3H)-one]
EC50 (mGlu2 receptor; test compound incubated 2.5 min before EC80 glutamate, read-out: mGlu2 EC50 (μM) (2.5 min)): > 10 µM
EC50 (mGlu2 receptor; read-out: mGlu2 EC50 (μM) (60 min), test compound incubated 60 min before EC80 glutamate): > 10 µM
EC50 (mGlu3 receptor): > 10 µM

N#Cc1cc(C2=Nc3ccc(Br)cc3NC(=O)C2)ccn1 [Example 182, 4-(8-Bromo-2-oxo-2,3-dihydro-1H-benzo[b][1,4]diazepin-4-yl)picolinonitrile]
antidepressant activity in the Forced Swim Test (immobility, swimming) (Male Wistar rats): antidepressant activity by decreasing immobility and increasing swimming

N[C@@]1(C(=O)O)CO[C@H]2[C@H](C(=O)O)[C@H]21 [LY379268]
neurological disability in SOD1G93A mice (SOD1G93A mice): beneficial effect on neurological disability
spinal cord GDNF levels [1]: enhanced spinal cord GDNF levels
phenotype in R6/2 mice (R6/2 mice): dramatically improves the phenotype
reserpine-induced akinesia after systemic administration (reserpine-treated rat; 0.1, 1, 10 mg/kg ip): did not reverse reserpine-induced akinesia
locomotor activity after intracerebroventricular administration (reserpine-treated rat; 1, 5, 10, 20 nmol/2 μl icv, reserpine (5 mg/kg ip)-treated rat): dose-dependent increase in locomotor activity
GDNF levels in astrocytes [2]: enhanced GDNF levels
